Laboratory results from US20240262815A1, “HETEROARYL DERIVATIVE, METHOD FOR PREPARING SAME, AND PHARMACEUTICAL COMPOSITION COMPRISING SAME AS ACTIVE INGREDIENT” (VORONOI INC., priority 2021, published 2024).

Legend:
SK-BR-3 cancer cells = assay: Inhibitory activity against proliferation of SK-BR-3 cancer cells (CellTiter-Glo); assay type: cell-based; details: Homo sapiens, SK-BR-3, 120 h, ErbB2-overexpressing SK-BR-3 cells, 120 hours after treatment
In short: (§1)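 GI50 derived from % growth relative to control, measured by CellTiter-Glo luminescence after 120 h compound exposure (12 concentrations, 0.2 nM-5 μM final, n=3). BT-474 grown in RPMI-1640/20% FBS, SK-BR-3 in McCOY'S 5A/10% FBS; seeding 48 h pre-treatment.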

BT-474 cancer cells = assay: Inhibitory activity against proliferation of BT-474 cancer cells (CellTiter-Glo); assay type: cell-based; details: Homo sapiens, BT-474 ErbB2-overexpressing cancer cells, 120 hours after treatment
In short: as §1

Row | SMILES | GI50 (SK-BR-3 cancer cells) | GI50 (BT-474 cancer cells)
1 | C=CC(=O)Nc1cc(Nc2cc(N3OCC[C@@H]3c3cccc(-c4cccc(F)c4F)c3)ncn2)c(OC)cc1N1CCN(C)CC1 [Example 284, (R)-N-(5-((6-(3-(2′,3′-difluoro-[1,1′-biphenyl]-3-yl)isoxazolidin-2-yl)pyrimidin-4-yl)-amino)-4-methoxy-2-(4-methylpiper-azin-1-yl)phenyl)-acrylamide] | < 50 nM | < 50 nM
2 | COc1cc(N2CCN(C)CC2)c(NC(=O)/C=C/CN(C)C)cc1Nc1cc(N2OCC[C@@H]2c2cccc(-c3cccc(F)c3)c2)ncn1 [Example 285, (R,E)-4-(dimethyl-amino)-N-(5-((6-(3-(3′-fluoro-[1,1′-biphenyl]-3-yl)-isoxazolidin-2-yl)-pyrimidin-4-yl)-amino)-4-methoxy-2-(4-methylpiper-azin-1-yl)phenyl)-but-2-enamide] | < 50 nM | < 50 nM
3 | C=CC(=O)Nc1cc(Nc2cc(N3OCC[C@@H]3c3cccc(-c4cccc(F)c4)c3)ncn2)c(OC)cc1N1CCO[C@@H](C)C1 [Example 286, N-(5-((6-((R)-3-(3′-fluoro-[1,1′-biphenyl]-3-yl)-isoxazolidin-2-yl)-pyrimidin-4-yl)-amino)-4-methoxy-2-((S)-2-methyl-morpholino)phen-yl)acrylamide] | < 50 nM | < 50 nM
4 | C=CC(=O)Nc1cc(Nc2cc(N3OCC[C@@H]3c3cccc(-c4cccc(F)c4)c3)ncn2)c(OC)cc1N1C[C@H]2C[C@@H]1CO2 [Example 287, N-(2-((1R,4R)-2-oxa-5-azabicyclo-[2.2.1]heptan-5-yl)-5-((6-((R)-3-(3′-fluoro-[1,1′-biphenyl]-3-yl)-isoxazolidin-2-yl)-pyrimidin-4-yl)-amino)-4-meth-oxyphenyl)acryl-amide] | < 50 nM | < 50 nM
5 | C=CC(=O)Nc1cc(Nc2cc(N3OCC[C@@H]3c3cccc(-c4cccc(F)c4)c3)ncn2)c(OC)cc1N1CCN(C)C(=O)C1 [Example 288, (R)-N-(5-((6-(3-(3′-fluoro-[1,1′-biphenyl]-3-yl)-isoxazolidin-2-yl)-pyrimidin-4-yl)-amino)-4-meth-oxy-2-(4-methyl-3-oxopiperazin-1-yl)phenyl)acryl-amide] | < 50 nM | < 50 nM
6 | C=CC(=O)Nc1cc(Nc2cc(N3OCC[C@@H]3c3cccc(-c4cccc(F)c4)c3)ncn2)c(OC)cc1N1CCN(C(C)=O)CC1 [Example 289, (R)-N-(2-(4-acetyl-piperazin-1-yl)-5-((6-(3-(3′-fluoro-[1,1′-biphenyl]-3-yl)isoxazolidin-2-yl)pyrimidin-4-yl)-amino)-4-methoxy-phenyl)acrylamide] | < 50 nM | < 50 nM
7 | C=CC(=O)Nc1cc(Nc2cc(N3OCC[C@@H]3c3cccc(-c4cccc(F)c4)c3)ncn2)c(OC)cc1N1CCS(=O)(=O)CC1 [Example 290, (R)-N-(2-(1,1-dioxidothiomorph-olino)-5-((6-(3-(3′-fluoro-[1,1′-biphen-yl]-3-yl)isoxazol-idin-2-yl)pyrim-idin-4-yl)amino)-4-methoxyphen-yl)acrylamide] | < 50 nM | < 50 nM
8 | C=CC(=O)Nc1cc(Nc2cc(N3OCC[C@@H]3c3cccc(-c4cccc(F)c4)c3)ncn2)c(OC)cc1N1C[C@@H](C)O[C@@H](C)C1 [Example 292, N-(2-((2S,6R)-2,6-dimethylmorpho-lino)-5-((6-((R)-3-(3′-fluoro-[1,1′-biphenyl]-3-yl)-isoxazolidin-2-yl)-pyrimidin-4-yl)-amino)-4-methoxy-phenyl)acrylamide] | < 50 nM | < 50 nM
9 | C=CC(=O)Nc1cc(Nc2cc(N3OCC[C@@H]3c3cccc(-c4cccc(F)c4)c3)ncn2)c(OC)cc1N1CCN(C2COC2)CC1 [Example 293, (R)-N-(5-((6-(3-(3′-fluoro-[1,1′-biphenyl]-3-yl)-isoxazolidin-2-yl)-pyrimidin-4-yl)-amino)-4-methoxy-2-(4-(oxetan-3-yl)-piperazin-1-yl)-phenyl)acrylamide] | < 50 nM | 50 to 500 nM
10 | C=CC(=O)Nc1cc(Nc2cc(N3OCC[C@@H]3c3cccc(-c4cccc(F)c4)c3)ncn2)c(OC)cc1N1CCN(S(C)(=O)=O)CC1 [Example 294, (R)-N-(5-((6-(3-(3′-fluoro-[1,1′-biphenyl]-3-yl)-isoxazolidin-2-yl)-pyrimidin-4-yl)-amino)-4-methoxy-2-(4-(methylsulfon-yl)piperazin-1-yl)-phenyl)acrylamide] | < 50 nM | < 50 nM
11 | C=CC(=O)Nc1cc(Nc2cc(N3OCC[C@@H]3c3cccc(-c4cccc(F)c4)c3)ncn2)c(OC)cc1N1CC2(CN(C(=O)OC(C)(C)C)C2)C1 [Example 295, tert-butyl (R)-6-(2-acrylamido-4-((6-(3-(3′-fluoro-[1,1′-biphenyl]-3-yl)-isoxazolidin-2-yl)-pyrimidin-4-yl)-amino)-5-methoxy-phenyl)-2,6-diazaspiro[3.3]-heptane-2-carbox-ylate] | 50 to 500 nM | < 50 nM
12 | C=CC(=O)Nc1cc(Nc2cc(N3OCC[C@@H]3c3cccc(C#Cc4ccccc4)c3)ncn2)c(OC)cc1N(C)CCN(C)C [Example 297, (R)-N-(2-((2-(dimethylamino)-ethyl)(methyl)-amino)-4-methoxy-5-((6-(3-(3-(phen-ylethynyl)phenyl)-isoxazolidin-2-yl)-pyrimidin-4-yl)-amino)phenyl)-acrylamide] | < 50 nM | < 50 nM
13 | C=CC(=O)Nc1cc(Nc2cc(N3OCC[C@@H]3c3cccc(-c4ccc(OC)nc4)c3)ncn2)c(OC)cc1N1CCN(C)CC1 [Example 298, (R)-N-(4-methoxy-5-((6-(3-(3-(6-methoxypyridin-3-yl)phenyl)-isox-azolidin-2-yl)-pyrimidin-4-yl)-amino)-2-(4-meth-ylpiperazin-1-yl)-phenyl)acrylamide] | < 50 nM | < 50 nM
14 | C=CC(=O)Nc1cc(Nc2cc(N3OCC[C@@H]3c3cccc(-c4ccc(OC)nc4)c3)ncn2)c(OC)cc1N(C)CCN(C)C [Example 300, (R)-N-(2-((2-(dimethylamino)-ethyl)(methyl)-amino)-4-methoxy-5-((6-(3-(3-(6-methoxypyridin-3-yl)phenyl)isox-azolidin-2-yl)pyr-imidin-4-yl)amino)-phenyl)acrylamide] | < 50 nM | < 50 nM
15 | C=CC(=O)Nc1cc(Nc2cc(N3OCC[C@@H]3c3cccc(-c4ccc(O)nc4)c3)ncn2)c(OC)cc1N(C)CCN(C)C [Example 301, (R)-N-(2-((2-(dimethylamino)-ethyl)(methyl)-amino)-5-((6-(3-(3-(6-hydroxy-pyridin-3-yl)phen-yl)-isoxazolidin-2-yl)pyrimidin-4-yl)amino)-4-meth-oxyphenyl)acryl-amide] | 50 to 500 nM | < 50 nM
16 | C=CC(=O)Nc1cc(Nc2cc(N3OCC[C@@H]3c3cccc(-c4cnc(C)c(F)c4)c3)ncn2)c(OC)cc1N1CCN(C)CC1 [Example 302, (R)-N-(5-((6-(3-(3-(5-fluoro-6-meth-ylpyridin-3-yl)-phenyl)isoxazol-idin-2-yl)pyrim-idin-4-yl)amino)-4-methoxy-2-(4-methylpiperazin-1-yl)phenyl)acryl-amide] | 50 to 500 nM | < 50 nM
17 | C=CC(=O)Nc1cc(Nc2cc(N3OCC[C@@H]3c3cccc(-c4cnc(C)c(F)c4)c3)ncn2)c(OC)cc1N(C)CCN(C)C [Example 303, (R)-N-(2-((2-(dimethylamino)-ethyl)(methyl)-amino)-5-((6-(3-(3-(5-fluoro-6-methylpyridin-3-yl)phenyl)isoxazol-idin-2-yl)pyrim-idin-4-yl)amino)-4-methoxyphenyl)-acrylamide] | < 50 nM | < 50 nM
18 | C=CC(=O)Nc1cc(Nc2cc(N3OCC[C@@H]3c3cccc(-c4cccc(F)c4)c3)ncn2)c(OC)cc1N1CCN(CCN(C)C)CC1 [Example 304, (R)-N-(2-(4-(2-(dimethylamino)-ethyl)piperazin-1-yl)-5-((6-(3-(3′-fluoro-[1,1′-biphen-yl]-3-yl)isoxazol-idin-2-yl)pyrim-idin-4-yl)amino)-4-methoxyphenyl)-acrylamide] | < 50 nM | < 50 nM
19 | C=CC(=O)Nc1cc(Nc2cc(N3OCC[C@@H]3c3cccc(C#CC(C)(C)C)c3)ncn2)c(OC)cc1N(C)CCN(C)C [Example 305, (R)-N-(2-((2-(dimethylamino)-ethyl)(methyl)-amino)-5-((6-(3-(3-(3,3-dimethyl-but-1-yn-1-yl)-phenyl)isoxazol-idin-2-yl)pyrim-idin-4-yl)amino)-4-methoxyphenyl)-acrylamide] | < 50 nM | < 50 nM
20 | C=CC(=O)Nc1cc(Nc2cc(N3OCC[C@@H]3c3cccc(-c4cccc(F)c4)c3)ncn2)c(OC)cc1N1C[C@H]2C[C@@H]1CN2C [Example 306, N-(5-((6-((R)-3-(3′-fluoro-[1,1′-biphenyl]-3-yl)-isoxazolidin-2-yl)-pyrimidin-4-yl)-amino)-4-meth-oxy-2-((1R,4R)-5-methyl-2,5-diaza-bicyclo[2.2.1]-heptan-2-yl)phen-yl)acrylamide] | < 50 nM | < 50 nM
21 | C=CC(=O)Nc1cc(Nc2cc(N3OCC[C@@H]3c3cccc(-c4cccc(F)c4)c3)ncn2)c(OC)cc1N1CCN(C)[C@@H](C)C1 [Example 307, N-(2-((S)-3,4-dimethylpiperazin-1-yl)-5-((6-((R)-3-(3′-fluoro-[1,1′-biphenyl]-3-yl)-isoxazolidin-2-yl)-pyrimidin-4-yl)-amino)-4-methoxy-phenyl)acrylamide] | < 50 nM | < 50 nM
22 | C=CC(=O)Nc1cc(Nc2cc(N3OCC[C@@H]3c3ccc(F)c(-c4cccc(F)c4)c3)ncn2)c(OC)cc1N1CCN(C)CC1 [Example 308, (R)-N-(5-((6-(3-(3′,6-difluoro-[1,1′-biphenyl]-3-yl)-isoxazolidin-2-yl)-pyrimidin-4-yl)-amino)-4-methoxy-2-(4-methylpiper-azin-1-yl)phenyl)-acrylamide] | < 50 nM | < 50 nM
